According to PubChem BioAssay (NCI):
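Step 1: Grow cells in 96-well plates. Step 2: Expose to compound for 48 hours at 5 concentrations. Step 3: Interpolate endpoints linearly; if unreached, use highest concentration. GI50: concentration for 50% inhibition of growth. TGI is the concentration that stops growth completely.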

Tested on: MDA-MB-468 breast
Test: NCI tumour cell line growth inhibition, 48 h

Structure (SMILES) | GI50 | TGI
O=C(Nc1ccccc1)Nc1ccccc1CNc1nc(Nc2ccc(OCCN3CCCC3)cc2)ncc1Cl | 1.96 µM | 9.4 µM
C=C(C)[C@@H]1CCC[C@]2(C(=O)O)CC[C@]3(C)[C@@H](CC[C@@H]4[C@@]5(C)C/C(=C/c6ccncc6)C(=O)C(C)(C)[C@@H]5CC[C@]43C)[C@@H]12 | 2.1 µM | 5.49 µM
COc1ccc(N(Cc2cc(OC)c(OC)c(OC)c2)C2OC(=O)c3ccccc32)cc1 (stereo not given) | 0.328 µM | > 100 µM
COc1cc(OC)cc(N2CCN(C(=O)Nc3nc4cc(F)ccc4nc3OC)CC2)c1 | 0.0283 µM | 65.1 µM
CC(=O)Nc1ccc(-n2cnc3cc(-c4ccc(OCCN5CCCCC5)cc4)ccc32)cc1 | 5.64 µM | 14.1 µM
O=c1[nH]c(-c2ccccn2)nc2sc3c(c12)CCCCCC3 | 1.66 µM | > 100 µM
CC1(C)CC2(C)OC2C2(C1)N=NC(=Nc1ccccc1)O2 (stereo not given) | 2.47 µM | 7.28 µM
CC(C)n1nc(C#Cc2cccc(NC(=O)c3cccc(C(F)(F)F)c3)c2)c2c(N)ncnc21 | 4.54 µM | 28.4 µM
COc1ccc(N=C2NN=C(c3c[nH]c4ccccc34)CS2)cc1OC | 14.6 µM | > 60.5 µM
CN(C)c1ccc(Sc2ccc3nc(N)nc(N)c3c2)cc1 | 0.909 µM | 2.65 µM
CCCCCCN(CCCCCC)CC(O)c1cccc2ccc(Cl)cc12 (stereo not given) | 3.19 µM | 14.6 µM
Cc1cc(N)c2ccccc2[n+]1CCCCCCCCCC[n+]1c(C)cc(N)c2ccccc21 | 0.0647 µM | 0.245 µM
CCCCCCCCCCCCCCCCCC1=NC(C)(C)CN1CCO | 1.59 µM | 3.04 µM
COc1ccc(S(=O)(=O)NCCNc2nccc(-c3c(-c4ccccc4)nc4sccn34)n2)cc1 | 3.03 µM | > 100 µM
COc1ncnc2c(-c3ccco3)cn(COCc3ccccc3)c12 | 2.4 µM | > 50 µM
COC(=O)Nc1nc2ccc(Sc3ccc(NC(=O)Nc4cc(C(F)(F)F)ccc4F)cc3)cc2[nH]1 | 0.882 µM | 4.75 µM
COc1cc(/C=C\c2cccnc2Nc2ccccc2)cc(OC)c1OC | 6.77 µM | 48.7 µM
C[C@H](NC(=O)CCC(F)(F)F)C(=O)N[C@@H]1C(=O)N(CCO)c2ncccc2-c2ccccc21 | > 100 µM | > 100 µM
CCOc1cccnc1/C=N/NC(N)=S | 2.54 µM | 13.3 µM
COc1cc(C(=O)N/N=C/c2cccc([N+](=O)[O-])c2)cc(OC)c1OC | 2.77 µM | 14 µM
CC(C)(C)c1ccc(S(=O)(=O)N[C@H]2CC[C@H]3[C@@H]4CCc5cc(O)ccc5[C@H]4CC[C@]23C)cc1 | 2.74 µM | 9.6 µM
Cc1ccc(OCCCCCCNCCO)c(C)c1 | 8.48 µM | 23.6 µM
CC(C)(C)c1cc(C(=O)Nc2cc3ccccc3cc2C(=O)NCCN)cc(C(C)(C)C)c1 | 0.347 µM | 0.989 µM
Cn1c(COC(=O)NCCN2CCOCC2)nc2c(N3CCOCC3)nc(-c3ccccc3)nc21 | 1.14 µM | 2.95 µM
O=c1c2cc(F)ccc2sc2c(NCCCN3CCCC3)nc3ccccc3c12 | 1.17 µM | 2.67 µM
C#Cc1ccc(-n2c(/C=C/c3cc(OC)c(OC)c(OC)c3)nc3ncccc3c2=O)cc1 | 2.83 µM | > 100 µM
CCCCCCN1C(=O)CN=C1Nc1ccc2cc3ccc(NC4=NCC(=O)N4CCCCCC)cc3nc2c1 | 1.64 µM | 3.4 µM
CC(C)C[C@H](NC(=O)[C@@H](O)[C@H](N)Cc1ccccc1)C(=O)O | 53.4 µM | > 100 µM
C[C@]12CC[C@@H]3c4ccc(O)cc4CC[C@H]3[C@@H]1CC[C@@H]2NS(=O)(=O)c1ccc(-c2ccccc2)cc1 | 2.96 µM | 38.8 µM
CCNC(=O)Oc1ccc(/C(=C(\C)c2ccc(Cl)cc2)c2ccc(OCCN3CCCCC3)cc2)cc1 | 2.66 µM | 9.5 µM
